In the METLIN SMRT retention time set (Domingo-Almenara et al. 2019) one finds RP-LC retention time data, which are given here for 59 compounds.

The data set can be described thus: gradient 5% acetonitrile 3 min, to 50% in 2 min, to 85% in 15 min, held 3 min, 100 µL/min. Conditions: column: Zorbax Extend-C18 2.1 x 50 mm; eluents: water / acetonitrile, 0.1% formic acid. A digest of the protocol:
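Retention times of pure standards were taken from adduct peaks that were selected by computer and manually inspected. Over 3 months, mixtures of ~100 molecules were run by HPLC–quadrupole time-of-flight mass spectrometry in positive and negative ionization mode. The Zorbax Extend-C18 column (2.1 × 50 mm, 1.8 μm) ran at 100 μL/min in water and acetonitrile, each containing 0.1% formic acid, with 40 μL dead volume and 900 μL dwell volume.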
`Cc1cc(C)n(CCC(=O)NCCn2c(C)cnc2C2CCC2)n1` registered an RP-LC retention time of 577 s.

For the compound `CCOC(=O)c1sc2ccccc2c1S(=O)(=O)N1CCC(C(N)=O)(N2CCCCC2)CC1`, the RP-LC retention time was 656 s.

Consider `COc1cccc(C(=O)NC2CCN(c3ccc(C)c(C)c3)C2=O)c1` (centres undefined), for which the RP-LC retention time came to 869 s. The same measure for `O=C(NCc1ccc(F)cc1)C1CCc2nc(N3CCOCC3)ncc2C1` (centres undefined): 808 s; for `O=C(Nc1cnc(N2CCCC2)nc1)c1cc(F)cc(F)c1`: 765 s; for `COC(=O)c1cc(S(=O)(=O)N2CCCC2C(=O)Nc2ccccc2F)cn1C` (centres undefined): 844 s. Then `COc1ccc2c(c1)C1CC(C)(O2)N(C)C(=O)C1S(=O)(=O)c1ccc(C)c(C)c1` (centres undefined), with 1030 s. Take `Cn1cccc1C(=O)NC1CCCN(c2cc(N3CCCC3)ncn2)C1` (centres undefined): the RP-LC retention time was 639 s.

As for `O=C1CCSc2ccc(S(=O)(=O)N3CCN(c4ccccn4)CC3)cc2N1`, the RP-LC retention time was 612 s. Turning to `COc1ccc(-c2noc(-c3nc(C4CC4)no3)n2)cc1`, the RP-LC retention time stood at 1090 s.

The compound `Cc1nnc(-c2cc(NC(=O)Cc3c[nH]c4ccccc34)c(C)s2)o1` yielded an RP-LC retention time of 794 s. For the compound `CCOc1ccccc1NC(=O)Nc1nnc(Cc2ccccc2)o1`, the RP-LC retention time came to 845 s.

Consider `Fc1ccccc1C(c1nnc(-c2ccccc2)o1)N1CCN(c2ccccn2)CC1` (centres undefined), for which the RP-LC retention time came to 704 s. The same measure for `COc1cc(C(C)c2cc3c(cc2OCCO)OCO3)cc(OC)c1OC` (centres undefined): 798 s; for `CN1Cc2ccccc2-n2ccnc2C12CCN(C(=O)c1ccc(Br)o1)CC2`: 615 s; for `Cc1ccc(Cn2c(N3CCCC(C(=O)Nc4ccc(Cl)cc4)C3)nc3ccsc3c2=O)cc1` (centres undefined): 1160 s.

`Cc1ccccc1C(=O)N1C[C@@H](F)C[C@H]1C(=O)N1CCOCC1` yielded an RP-LC retention time of 620 s. `Cc1ccc(C(=O)Nc2nccnc2C(=O)NC(C)c2ccc(F)cc2)cc1` (centres undefined) registered an RP-LC retention time of 1060 s. The same measure for `CCc1cc(C2CCCN2C(=O)Nc2ccc(OC)cc2OC)on1` (centres undefined): 829 s.

Turning to `Cc1ccc(C)c(S(=O)(=O)N2CCc3nc(-c4ccc(F)cc4)ncc3C2)c1`, the RP-LC retention time came out at 1200 s. Then `CCCOC(=O)c1cccc(Nc2nc(C(=O)OCC)nc3ccccc23)c1`, with 955 s. For `COc1cccc(CNC(=O)Cn2c(=O)cc(-c3nc(C(C)C)no3)c3ccccc32)c1`, the RP-LC retention time was determined as 944 s.

`O=C(C1=CN(c2cc(F)cc(F)c2)c2cc(F)ccc2S1(=O)=O)N1CCCC1` yielded an RP-LC retention time of 829 s. For `CN(C)c1ccc(CNC(=O)c2cc3n(n2)CC(C)(C(=O)NC2CCCCCC2)N(C)C3=O)cc1` (centres undefined), the RP-LC retention time worked out at 649 s. The same measure for `Cc1ccc(-c2noc(CSc3nc4cc5c(cc4c(=O)n3Cc3ccncc3)OCO5)n2)cc1`: 845 s. Take `Cc1ccc(S(=O)(=O)c2cnc(N3CCN(c4ccccc4F)CC3)nc2N)cc1C`: the RP-LC retention time amounted to 1200 s. For `CN(C)S(=O)(=O)c1ccc(-c2nnc(C(=O)NCc3cc(F)cc(F)c3)o2)cc1`, the RP-LC retention time turned out to be 878 s.

The compound `Cn1nccc1C(=O)N1CCC(c2nc(-c3ccccc3)no2)C1` (centres undefined) had an RP-LC retention time of 779 s.

Consider `COc1ccc(OC)c(Nc2nc(NCC3CCCO3)nc(N)c2[N+](=O)[O-])c1` (centres undefined), for which the RP-LC retention time was 810 s. The same measure for `CCn1cc(C(CNC(=O)Nc2ccc(OC)cc2OC)c2cccnc2)c2ccccc21` (centres undefined): 700 s. Consider `CCOc1ccccc1C(=O)NC1CCN(c2cc(-c3cccs3)[nH]n2)C1` (centres undefined), for which the RP-LC retention time is 769 s.

Compound `CCCCc1ccc(NC(=O)N2CCC3(C2)c2nc[nH]c2CCN3C)cc1` (centres undefined) registered an RP-LC retention time of 565 s. The same measure for `CC(C)C(=O)N1CCc2cc(-c3ccc(C(=O)NCCCN4CCN(C)CC4)cc3)ccc21`: 607 s; for `Cc1ccccc1CNC1=NCCNC12CCN(S(=O)(=O)c1ccc3c(c1)CCCC3)CC2`: 851 s. Then `Cc1ccc(NS(=O)(=O)c2c(C)sc(C)c2-c2cc(C(F)(F)F)on2)cc1C`, with 1220 s; and `CCC(=O)N(C)CCc1noc(-c2ccc(C(=O)NCCN(C)C)cc2)n1`, with 579 s; and `CC(C)(C)C(=O)N1CCCC(C(=O)Nc2sc3c(c2C(N)=O)CCCC3)C1` (centres undefined), with 861 s. Then `COc1ccc(C2Cn3nnc(C(=O)NCc4cc(OC)ccc4OC)c3CO2)cc1` (centres undefined), with 926 s. `CN1C(=O)COc2cc(-c3noc(C(=O)N4CCCCCC4)n3)ccc21` showed an RP-LC retention time of 919 s.

In the case of `O=C(Nc1cccc2cccnc12)C1CCN(c2ccc(-n3cccn3)nn2)CC1`, the RP-LC retention time came to 745 s. Then `Cc1ccc(CNS(=O)(=O)c2c(-c3nnc(C)o3)c(C)n(C)c2C)o1`, with 780 s; and `Cc1ccc(S(=O)(=O)N2CCc3c(c(-c4nnc(-c5ccccc5F)o4)nn3C)C2)cc1C`, with 988 s; and `Cc1ccccc1CNC(=O)Cn1nc(C(=O)N2CCCC2)c2ccccc21`, with 799 s. Compound `CCNC(=O)c1cc(C)on1` came in with an RP-LC retention time of 596 s. Take `Cn1nc(C2CC2)nc1C1CN(C(=O)Cc2ccc(S(C)(=O)=O)cc2)C1`: the RP-LC retention time was determined as 611 s. As to `CCCS(=O)(=O)N1CC[C@@H]2CN(Cc3ccccc3)[C@@H]2C1`, the RP-LC retention time stood at 607 s. `N#Cc1cnc2nc(-c3ccccc3)nn2c1N` had an RP-LC retention time of 663 s. `CCCC(NC(=O)c1ccc(OC)c(OC)c1)C(=O)Nc1nc2ccccc2[nH]1` (centres undefined) registered an RP-LC retention time of 650 s. `CCCn1ccc2oc(C)c(C(=O)NC(C)c3ccc(C)cc3C)c2c1=O` (centres undefined) had an RP-LC retention time of 1190 s.

The compound `Cc1nc(C(=O)NCc2cccc(Cl)c2)c(C)o1` gave an RP-LC retention time of 871 s.

As for `Cc1ccc(S(=O)(=O)N2CCC(n3cnnc3-c3ccccc3)CC2)cc1C`, the RP-LC retention time turned out to be 859 s. For the compound `Cc1[nH]c(C(=O)N2CCC(CC(=O)NC3CCCCCC3)CC2)c(C)c1C`, the RP-LC retention time amounted to 872 s. The same measure for `O=C(NCCn1cnc2ccccc2c1=O)C1CC(=O)N(c2n[nH]c3ccccc23)C1` (centres undefined): 632 s. The same measure for `O=C(Cn1nc(N2CCSCC2)c2ccccc2c1=O)Nc1ccccc1Cl`: 979 s. Take `COc1ccc(OC)c(S(=O)(=O)N2CCCC(C(=O)NC(C)(C)C)C2)c1` (centres undefined): the RP-LC retention time was determined as 768 s. The same measure for `Cc1ccc(CNC(=O)c2ccc3c(=O)n(-c4ccccc4)c(N4CCCC4)nc3c2)o1`: 830 s. The compound `COc1cc(NC(=O)CCc2c(C)nn(-c3cc(N(C)C)ncn3)c2C)cc(OC)c1` gave an RP-LC retention time of 792 s. Then `O=C(Cn1cncc(-c2nc(-c3cccs3)cs2)c1=O)Nc1cccc(Cl)c1`, with 941 s; and `O=C(CCn1c(N2CCCC2)nc2ccsc2c1=O)Nc1cccc(Cl)c1`, with 892 s.
